# Results taken from PubChem BioAssay AID2060508 (Molecular Pharmacology Branch, DTP, NCI, 2025).
# System: 454973-116-R2-J3-PDC spheroids, viability, % test/control
# Assay: Anticancer human tumor 454973-116-R2-J3-PDC patient-derived pancreatic carcinoma cell line growth inhibition [GQUAD]
# Details: spheroids with HUVEC and MSC; for IC50: curve of first compound; for viability, T/C: stronger effect = lower value
# Procedure, shortened: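 Viability of tumor cells grown as complex spheroids with endothelial and stromal cells, exposed to drug combinations. Top concentration at or near clinical Cmax (else 10 microM), diluted in half-log increments.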
# [1] = second compound 0.0316 µM, first compound 0.0316 µM
# [2] = second compound 0.0316 µM, first compound 0.1 µM
# [3] = second compound 0.0316 µM, first compound 0.316 µM
# [4] = second compound 0.0316 µM, first compound 1 µM
# [5] = second compound 0.0316 µM, first compound 3.16 µM
# [6] = second compound 0.0316 µM, first compound 10 µM
# [7] = second compound 0.1 µM, first compound 0.0316 µM
# [8] = second compound 0.1 µM, first compound 0.1 µM
# [9] = second compound 0.1 µM, first compound 0.316 µM
# [10] = second compound 0.1 µM, first compound 1 µM
# [11] = second compound 0.1 µM, first compound 3.16 µM
# [12] = second compound 0.1 µM, first compound 10 µM
# [13] = second compound 0.316 µM, first compound 0.0316 µM
# [14] = second compound 0.316 µM, first compound 0.1 µM
# [15] = second compound 0.316 µM, first compound 0.316 µM
# [16] = second compound 0.316 µM, first compound 1 µM
# [17] = second compound 0.316 µM, first compound 3.16 µM
# [18] = second compound 0.316 µM, first compound 10 µM
# [19] = second compound 1 µM, first compound 0.0316 µM
# [20] = second compound 1 µM, first compound 0.1 µM
# [21] = second compound 1 µM, first compound 0.316 µM
# [22] = second compound 1 µM, first compound 1 µM
# [23] = second compound 1 µM, first compound 3.16 µM
# [24] = second compound 1 µM, first compound 10 µM
# [25] = second compound 3.16 µM, first compound 0.0316 µM
# [26] = second compound 3.16 µM, first compound 0.1 µM
# [27] = second compound 3.16 µM, first compound 0.316 µM
# [28] = second compound 3.16 µM, first compound 1 µM
# [29] = second compound 3.16 µM, first compound 3.16 µM
# [30] = second compound 3.16 µM, first compound 10 µM
# [31] = second compound 10 µM, first compound 0.0316 µM
# [32] = second compound 10 µM, first compound 0.1 µM
# [33] = second compound 10 µM, first compound 0.316 µM
# [34] = second compound 10 µM, first compound 1 µM
# [35] = second compound 10 µM, first compound 3.16 µM
# [36] = second compound 10 µM, first compound 10 µM
# 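Note: spheroids exposed to compounds for seven days.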
# 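Throughout, for viability, T/C: 100% = DMSO vehicle control viability.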
structure (smiles),measurement,setting,value
C=CCn1c(=O)c2cnc(Nc3ccc(N4CCN(C)CC4)cc3)nc2n1-c1cccc(C(C)(C)O)n1 + Cc1[nH]c2ccc(F)cc2c1-c1nc2c3cccnc3c3ncccc3c2[nH]1,IC50,second compound 0.0316 µM,364 nM
same,IC50,second compound 0.1 µM,478 nM
same,IC50,second compound 0.316 µM,401 nM
same,IC50,second compound 1 µM,433 nM
same,IC50,second compound 3.16 µM,335 nM
same,IC50,second compound 10 µM,339 nM
same,"viability, T/C",[1],124%
same,"viability, T/C",[2],92.8%
same,"viability, T/C",[3],60.4%
same,"viability, T/C",[4],15.3%
same,"viability, T/C",[5],7.69%
same,"viability, T/C",[6],10.2%
same,"viability, T/C",[7],101%
same,"viability, T/C",[8],95.5%
same,"viability, T/C",[9],69.8%
same,"viability, T/C",[10],15%
same,"viability, T/C",[11],6.68%
same,"viability, T/C",[12],11.6%
same,"viability, T/C",[13],105%
same,"viability, T/C",[14],99%
same,"viability, T/C",[15],58.7%
same,"viability, T/C",[16],16.7%
same,"viability, T/C",[17],7.33%
same,"viability, T/C",[18],12.1%
same,"viability, T/C",[19],111%
same,"viability, T/C",[20],96.2%
same,"viability, T/C",[21],63.4%
same,"viability, T/C",[22],18.3%
same,"viability, T/C",[23],6.95%
same,"viability, T/C",[24],12.4%
same,"viability, T/C",[25],101%
same,"viability, T/C",[26],98.6%
same,"viability, T/C",[27],51.8%
same,"viability, T/C",[28],14.2%
same,"viability, T/C",[29],7.78%
same,"viability, T/C",[30],12.1%
same,"viability, T/C",[31],100%
same,"viability, T/C",[32],78.4%
same,"viability, T/C",[33],57.6%
same,"viability, T/C",[34],14.1%
same,"viability, T/C",[35],7.95%
same,"viability, T/C",[36],12.3%
CC(=O)O[C@H]1C(=O)[C@@]2(C)[C@H]([C@H](OC(=O)c3ccccc3)[C@]3(O)C[C@H](OC(=O)[C@H](O)[C@@H](NC(=O)c4ccccc4)c4ccccc4)C(C)=C1C3(C)C)[C@]1(OC(C)=O)CO[C@@H]1C[C@@H]2O + Cc1cnc(CNC(=O)c2c(=O)c3ccc(N4CCCN(C)CC4)nc3n3c2sc2ccccc23)cn1,IC50,second compound 0.0316 µM,< 31.6 nM
same,IC50,second compound 0.1 µM,< 31.6 nM
same,IC50,second compound 0.316 µM,< 31.6 nM
same,IC50,second compound 1 µM,< 31.6 nM
same,IC50,second compound 3.16 µM,< 31.6 nM
same,IC50,second compound 10 µM,< 31.6 nM
same,"viability, T/C",[1],17.2%
same,"viability, T/C",[2],12.7%
same,"viability, T/C",[3],10.7%
same,"viability, T/C",[4],7.9%
same,"viability, T/C",[5],9.07%
same,"viability, T/C",[6],11.3%
same,"viability, T/C",[7],20.6%
same,"viability, T/C",[8],16.3%
same,"viability, T/C",[9],9.56%
same,"viability, T/C",[10],9.77%
same,"viability, T/C",[11],11.2%
same,"viability, T/C",[12],15.5%
same,"viability, T/C",[13],27.5%
same,"viability, T/C",[14],17.2%
same,"viability, T/C",[15],17.9%
same,"viability, T/C",[16],15.7%
same,"viability, T/C",[17],15.3%
same,"viability, T/C",[18],19.6%
same,"viability, T/C",[19],33.9%
same,"viability, T/C",[20],28.3%
same,"viability, T/C",[21],23.3%
same,"viability, T/C",[22],25.7%
same,"viability, T/C",[23],24.8%
same,"viability, T/C",[24],30.4%
same,"viability, T/C",[25],42.4%
same,"viability, T/C",[26],36.2%
same,"viability, T/C",[27],32.1%
same,"viability, T/C",[28],26.5%
same,"viability, T/C",[29],34.1%
same,"viability, T/C",[30],37.1%
same,"viability, T/C",[31],0.12%
same,"viability, T/C",[32],1.08%
same,"viability, T/C",[33],0.19%
same,"viability, T/C",[34],0.17%
same,"viability, T/C",[35],0.19%
same,"viability, T/C",[36],0.21%
CC1COCCN1c1cc(-c2ccnn2C)c2ccnc(-c3ccn[nH]3)c2n1 (stereo unspecified) + Cc1[nH]c2ccc(F)cc2c1-c1nc2c3cccnc3c3ncccc3c2[nH]1,IC50,second compound 0.0316 µM,162 nM
same,IC50,second compound 0.1 µM,171 nM
same,IC50,second compound 0.316 µM,168 nM
same,IC50,second compound 1 µM,158 nM
same,IC50,second compound 3.16 µM,116 nM
same,IC50,second compound 10 µM,117 nM
same,"viability, T/C",[1],97.4%
same,"viability, T/C",[2],66.8%
same,"viability, T/C",[3],26.6%
same,"viability, T/C",[4],23.2%
same,"viability, T/C",[5],26.3%
same,"viability, T/C",[6],23.6%
same,"viability, T/C",[7],98.1%
same,"viability, T/C",[8],67.1%
same,"viability, T/C",[9],30.6%
same,"viability, T/C",[10],23.3%
same,"viability, T/C",[11],24%
same,"viability, T/C",[12],26.4%
same,"viability, T/C",[13],97.8%
same,"viability, T/C",[14],65.8%
same,"viability, T/C",[15],31%
same,"viability, T/C",[16],20.6%
same,"viability, T/C",[17],23.4%
same,"viability, T/C",[18],21.9%
same,"viability, T/C",[19],87%
same,"viability, T/C",[20],62%
same,"viability, T/C",[21],32.2%
same,"viability, T/C",[22],18.7%
same,"viability, T/C",[23],20.3%
same,"viability, T/C",[24],22.8%
same,"viability, T/C",[25],92.2%
same,"viability, T/C",[26],52.9%
same,"viability, T/C",[27],30.2%
same,"viability, T/C",[28],20.8%
same,"viability, T/C",[29],23.5%
same,"viability, T/C",[30],24.9%
same,"viability, T/C",[31],81.6%
same,"viability, T/C",[32],53.1%
same,"viability, T/C",[33],29.8%
same,"viability, T/C",[34],18.3%
same,"viability, T/C",[35],23.1%
same,"viability, T/C",[36],22.6%
